In brackets after ≈: the same amount, converted by molar mass.

For the assay, the system named is Mycobacterium tuberculosis. In words: Antimycobacterial activity against Mycobacterium tuberculosis H37Rv by agar diffusion method. Type of assay: functional. A general note: A growth-free zone around the sample is the usual read-out of agar diffusion tests.
`CC[C@@H](CO)NCCN[C@@H](CC)CO` [ETHAMBUTOL] gave an MIC of 1.56 µg/mL (≈ 7.64 µM).

In turn, `COc1ccc2c(CS(=O)(=O)c3ccc(Cl)cc3)cc(=O)oc2c1OC` showed an MIC of 1.56 µg/mL (≈ 3.95 µM).

In the case of `COc1ccc2c(CS(=O)(=O)C3CCCCC3)cc(=O)oc2c1`, the lowest concentration to inhibit growth (MIC) was 12.5 µg/mL (≈ 37.2 µM).

In turn, `COc1ccc2c(CS(=O)(=O)c3ccc(C)cc3)cc(=O)oc2c1` yielded an MIC of 12.5 µg/mL (≈ 36.3 µM).

Compound `COc1ccc2c(CS(=O)(=O)c3nc4ccccc4o3)cc(=O)oc2c1OC` came in with an MIC of 0.78 µg/mL (≈ 1.94 µM).

As for `NC(=O)c1cnccn1` [PYRAZINAMIDE], the MIC stood at 6.25 µg/mL (≈ 50.8 µM).

Compound `O=c1cc(CS(=O)(=O)c2nc3ccccc3o2)c2ccccc2o1` displayed an MIC of 7.5 µg/mL (≈ 22 µM).

`COc1ccc2c(CS(=O)(=O)c3ccccc3)cc(=O)oc2c1OC` registered an MIC of 6.25 µg/mL (≈ 17.3 µM).

As to `COc1ccc2c(CS(=O)(=O)c3ccccc3)cc(=O)oc2c1`, the lowest concentration to inhibit growth (MIC) was 12.5 µg/mL (≈ 37.8 µM).

On to `COc1ccc2c(CS(=O)(=O)c3ccc(Cl)cc3)cc(=O)oc2c1`, for which the MIC was determined as 6.25 µg/mL (≈ 17.1 µM).

With `O=c1cc(CS(=O)(=O)c2nc3ccccc3[nH]2)c2ccccc2o1`, inhibition of growth (MIC) required 1.61 µg/mL (≈ 4.73 µM).

For the compound `Cc1ccc(S(=O)(=O)Cc2cc(=O)oc3ccccc23)cc1`, the MIC worked out at 12.5 µg/mL (≈ 39.8 µM).

As to `O=c1cc(CS(=O)(=O)c2ccc(Cl)cc2)c2ccccc2o1`, it took 12.5 µg/mL (≈ 37.3 µM) to inhibit growth (MIC).

`O=c1cc(CS(=O)(=O)C2CCCCC2)c2ccccc2o1` gave an MIC of 6.25 µg/mL (≈ 20.4 µM).

`COc1ccc2c(CS(=O)(=O)c3nc4ccccc4[nH]3)cc(=O)oc2c1OC` came in with an MIC of 6.25 µg/mL (≈ 15.6 µM).

Consider `COc1ccc2c(CS(=O)(=O)c3ccc(C)cc3)cc(=O)oc2c1OC`, for which the MIC turned out to be 3.13 µg/mL (≈ 8.36 µM).

For the compound `COc1ccc2c(CS(=O)(=O)c3nc4ccccc4o3)cc(=O)oc2c1`, inhibition of growth (MIC) required 6.25 µg/mL (≈ 16.8 µM).

`COc1ccc2c(CS(=O)(=O)c3nc4ccccc4[nH]3)cc(=O)oc2c1`: inhibition of growth (MIC) required 6.25 µg/mL (≈ 16.9 µM).

For `COc1ccc2c(CS(=O)(=O)C3CCCCC3)cc(=O)oc2c1OC`, the MIC came to 12.5 µg/mL (≈ 34.1 µM).

The compound `O=c1cc(CS(=O)(=O)c2ccccc2)c2ccccc2o1` showed an MIC of 6.25 µg/mL (≈ 20.8 µM).

As usually defined, the MIC is the lowest concentration found to suppress growth.

These data come from ChEMBL document CHEMBL2046407, “Synthesis and in vitro antitubercular activity of 4-aryl/alkylsulfonylmethylcoumarins as inhibitors of Mycobacterium tuberculosis” (2012).
